Source: patent US9371275B2, “5-aminolevulinic acid prodrugs for use in photodynamic therapy and photodynamic diagnosis” (Swedish Pharma AB, priority 2008, dated 2016)

Tests used:
human living cells = test: PpIX synthesis in human living cells, spectrofluorometric measurements (fluorescence at 632 nm); type: cell-based
From the text: Using the spectrum of PpIX as reference (FIG. 2), a comparison between PpIX synthesis by the oxime compound according to the invention with that based on the methyl ester of 5ALA currently in clinical use (MetVix), was made on human living cells using spectrofluorometric measurements.
Diamonds=5ALA methyl ester (MetVix); Squares=5ALA oxime 20% w/w in Essex™ cream.

[1] = after application of 5ALA or known derivatives; cited from earlier work
[2] = after intravenous injection; very slow clearance rate from the body; cited from earlier work

SMILES: NCC(CCC(=O)O)=NO [5-ALA oxime]
- production of PpIX (human living cells): capable of producing PpIX
- time for which elevated levels of PpIX are retained after application (human living cells; 5ALA oxime 20% w/w in Essex cream, human cells, fluorescence at 632 nm): at least 6 h
- concentration of PpIX generated compared with 5ALA methyl ester (MetVix) (human living cells; 3 h after application, 5-ALA oxime 20% (w/w) in Essex cream, human cells): higher concentration of PpIX

SMILES: NCC(=O)CCC(=O)O [5ALA, 5-aminolevulinic acid]
- time after application at which PpIX concentration reaches optimal therapeutic window [1]: 2 to 4 h
- time in which PpIX concentration decays to normal background levels [1]: 36 to 48 h

SMILES: Oc1cccc(-c2c3nc(c(-c4cccc(O)c4)c4ccc([nH]4)c(-c4cccc(O)c4)c4nc(c(-c5cccc(O)c5)c5ccc2[nH]5)CC4)C=C3)c1 [Foscan, temoporfin]
- duration of patient hypersensitization [2]: up to 3 weeks
